How the values were obtained:
[1] = test system: ACHN; assay: NCI human tumor cell panel: ACHN (Renal Cancer); assay type: cell-based; conditions: Renal Cancer
[2] = test system: NCI-H460; assay: NCI human tumor cell panel: NCI-H460 (Non-Small Cell Lung Cancer); assay type: cell-based; conditions: NCI-H460, Non-Small Cell Lung Cancer
[3] = test system: HOP-92; assay: NCI human tumor cell panel: HOP-92 (Non-Small Cell Lung Cancer)
[4] = test system: A549/ATCC; assay: NCI human tumor cell panel: A549/ATCC (Non-Small Cell Lung Cancer); assay type: cell-based; conditions: Non-Small Cell Lung Cancer
[5] = test system: K-562; assay: NCI human tumor cell panel: K-562 (Leukemia); assay type: cell-based; conditions: K562, K-562, Leukemia
[6] = test system: TK-10; assay: NCI human tumor cell panel: TK-10 (Renal Cancer); assay type: cell-based; conditions: TK-10, Renal Cancer
[7] = test system: OVCAR-8; assay: NCI human tumor cell panel: OVCAR-8 (Ovarian Cancer); assay type: cell-based; conditions: OVCAR-8, Ovarian Cancer
[8] = test system: UO-31; assay: NCI human tumor cell panel: UO-31 (Renal Cancer); assay type: cell-based; conditions: UO-31, Renal Cancer
[9] = test system: DU-145; assay: NCI human tumor cell panel: DU-145 (Prostate Cancer); assay type: cell-based; conditions: DU-145, Prostate Cancer
[10] = test system: HCC-2998; assay: NCI human tumor cell panel: HCC-2998 (Colon Cancer); assay type: cell-based; conditions: HCC-2998, Colon Cancer
[11] = test system: MDA-MB-435; assay: NCI human tumor cell panel: MDA-MB-435 (Breast Cancer); assay type: cell-based; conditions: MDA-MB-435, Breast Cancer
[12] = test system: SF-295; assay: NCI human tumor cell panel: SF-295 (CNS Cancer); assay type: cell-based; conditions: SF-295, CNS Cancer
[13] = test system: LOX IMVI; assay: NCI human tumor cell panel: LOX IMVI (Melanoma); assay type: cell-based; conditions: Melanoma
[14] = test system: CCRF-CEM; assay: NCI human tumor cell panel: CCRF-CEM (Leukemia); assay type: cell-based; conditions: Leukemia
[15] = test system: U251; assay: NCI human tumor cell panel: U251 (CNS Cancer); assay type: cell-based; conditions: U-251, U251, CNS Cancer
[16] = test system: HCT-116; assay: NCI human tumor cell panel: HCT-116 (Colon Cancer); assay type: cell-based; conditions: HCT-116, Colon Cancer
[17] = test system: MCF7; assay: NCI human tumor cell panel: MCF7 (Breast Cancer); assay type: cell-based; conditions: MCF7, Breast Cancer
[18] = test system: MDA-N; assay: NCI human tumor cell panel: MDA-N (Breast Cancer); assay type: cell-based; conditions: Breast Cancer
[19] = test system: PC-3; assay: NCI human tumor cell panel: PC-3 (Prostate Cancer); assay type: cell-based; conditions: PC-3, Prostate Cancer
[20] = test system: BT-549; assay: NCI human tumor cell panel: BT-549 (Breast Cancer); assay type: cell-based; conditions: BT-549, Breast Cancer
[21] = test system: 786-0; assay: NCI human tumor cell panel: 786-0 (Renal Cancer); assay type: cell-based; conditions: 786-0, Renal Cancer
[22] = test system: HS 578T; assay: NCI human tumor cell panel: HS 578T (Breast Cancer); assay type: cell-based; conditions: Breast Cancer
[23] = test system: SK-MEL-5; assay: NCI human tumor cell panel: SK-MEL-5 (Melanoma); assay type: cell-based; conditions: SK-MEL-5, Melanoma
[24] = test system: RPMI-8226; assay: NCI human tumor cell panel: RPMI-8226 (Leukemia); assay type: cell-based; conditions: RPMI-8226, Leukemia
[25] = test system: SNB-19; assay: NCI human tumor cell panel: SNB-19 (CNS Cancer); assay type: cell-based; conditions: SNB-19, CNS Cancer
[26] = test system: UACC-257; assay: NCI human tumor cell panel: UACC-257 (Melanoma); assay type: cell-based; conditions: UACC-257, Melanoma
[27] = test system: OVCAR-3; assay: NCI human tumor cell panel: OVCAR-3 (Ovarian Cancer); assay type: cell-based; conditions: OVCAR-3, Ovarian Cancer
[28] = test system: MOLT-4; assay: NCI human tumor cell panel: MOLT-4 (Leukemia); assay type: cell-based; conditions: MOLT-4, Leukemia
[29] = test system: IGROV1; assay: NCI human tumor cell panel: IGROV1 (Ovarian Cancer); assay type: cell-based; conditions: IGROV-1, IGROV1, Ovarian Cancer
[30] = test system: M14; assay: NCI human tumor cell panel: M14 (Melanoma); assay type: cell-based; conditions: M14, Melanoma
[31] = test system: SNB-75; assay: NCI human tumor cell panel: SNB-75 (CNS Cancer); assay type: cell-based; conditions: SNB-75, CNS Cancer
[32] = read-out: Log10 GI50 (converted)
[33] = read-out: Log10 TGI (converted)

O=Cc1ccc(-c2ccc(-c3ccc[se]3)[se]2)[se]1 [NSC 675244]
GI50 [1, 32]: 10.2 µM | IC (TGI) [1, 33]: 21.9 µM | GI50 [2, 32]: 2.24 µM | IC (TGI) [2, 33]: 16.2 µM | GI50 ([3]; HOP-92, read-out: Log10 GI50 (converted)): 11 µM | IC (TGI) ([3]; HOP-92, read-out: Log10 TGI): 25.7 µM | GI50 [4, 32]: 13.5 µM | IC (TGI) [4, 33]: 26.3 µM | GI50 [5, 32]: 1.35 µM | IC (TGI) [5, 33]: 33.1 µM | GI50 [6, 32]: 0.288 µM | IC (TGI) [6, 33]: 0.891 µM | GI50 [7, 32]: 9.12 µM | IC (TGI) [7, 33]: 30.2 µM | GI50 [8, 32]: 15.5 µM | IC (TGI) [8, 33]: 28.8 µM | GI50 [9, 32]: 12.6 µM | IC (TGI) [9, 33]: 25.1 µM | GI50 [10, 32]: 2.51 µM | IC (TGI) [10, 33]: 11.5 µM | GI50 [11, 32]: 10.2 µM | IC (TGI) [11, 33]: 33.1 µM | GI50 [12, 32]: 15.1 µM | IC (TGI) [12, 33]: 28.2 µM | GI50 [13, 32]: 5.62 µM | IC (TGI) [13, 33]: 20.9 µM | GI50 [14, 32]: 2.14 µM | IC (TGI) [14, 33]: 7.08 µM | GI50 [15, 32]: 0.316 µM | IC (TGI) [15, 33]: 13.8 µM | GI50 [16, 32]: 0.38 µM | IC (TGI) [16, 33]: 13.8 µM | GI50 [17, 32]: 0.479 µM | IC (TGI) [17, 33]: 11.5 µM | GI50 [18, 32]: 4.57 µM | IC (TGI) [18, 33]: 19.5 µM | GI50 [19, 32]: 12 µM | IC (TGI) [19, 33]: 32.4 µM | GI50 [20, 32]: 12.3 µM | IC (TGI) [20, 33]: 30.9 µM | GI50 [21, 32]: 6.03 µM | IC (TGI) [21, 33]: 18.6 µM | GI50 [22, 32]: 7.24 µM | IC (TGI) [22, 33]: 21.9 µM | GI50 [23, 32]: 3.39 µM | IC (TGI) [23, 33]: 13.8 µM | GI50 [24, 32]: 2.95 µM | IC (TGI) ([24]; read-out: Log10 TGI): > 100 µM | GI50 [25, 32]: 10.2 µM | IC (TGI) [25, 33]: 30.2 µM | GI50 [26, 32]: 0.309 µM | IC (TGI) [26, 33]: 0.851 µM | GI50 [27, 32]: 0.282 µM | IC (TGI) [27, 33]: 7.94 µM | GI50 [28, 32]: 2.4 µM | IC (TGI) [28, 33]: 7.59 µM | GI50 [29, 32]: 3.31 µM | IC (TGI) [29, 33]: 15.5 µM | GI50 [30, 32]: 11.5 µM | IC (TGI) [30, 33]: 28.8 µM | GI50 [31, 32]: 2 µM | IC (TGI) [31, 33]: 6.46 µM

From patent publication US20040063662A1, “Selenophene anti-tumor agents” (priority 1996, published 2004)
